According to ChEMBL document CHEMBL1201862, “PubChem BioAssay data set” (2004):
Calls of active or inactive are those of the source.

Assays:
[1] = biological target: Arf-GAP with SH3 domain, ANK repeat and PH domain-containing protein 1 (Homo sapiens, UniProt Q9ULH1); format: functional;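 further: biochemical fluorescence polarization dose–response screen measuring inhibition of ASAP1; ASAP1 GAP domain stimulating GTP hydrolysis by truncated human ARF1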
[2] = HIV-1 AD8 envelope cell-cell fusion blockers – cherry-pick, dose response (AID 652062); format: functional, cell-based;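 further: luciferase signal from cell-cell fusion driven by HIV-1 clade B AD8 Env; potency is for inhibitors of fusion seen as a drop in luminescence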
[3] = viability loss in CEM21 cells – cell-based, CellTiter-Glo luminescence, cherry-picked, cytotoxicity control for viral fusion inhibitor project, dose response (AID 652042); format: functional;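 further: potency for signal decrease meaning cytotoxicity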
[4] = biological target: ADP-ribosylation factor GTPase-activating protein 1 (Rattus norvegicus, UniProt Q62848); test: Fluorescence polarization-based biochemical high throughput dose response screening assay to identify inhibitors of ADP-ribosylation factor GTPase activating protein 1 (ARFGAP1).; format: functional
Vero = test: viability loss in Vero cells – cell-based, plate reader, cherry-pick samples, cytotoxicity control, dose response (AID 687020); format: functional; details: Chlorocebus sabaeus
Beta Lactamase = Beta Lactamase (Pseudomonas aeruginosa, UniProt Q932Y6); test: BLA reporter interference, concentration series – BLA reporter cells, FRET fluorescence, artefact control for NOD2-RIPK2 interaction inhibitor project, dose response (AID 651552); format: functional, cell-based
Fatty acid synthase [5] = biological target: T1, Fatty acid synthase (Homo sapiens, UniProt P49327); test: inhibition of human FAS-TE enzyme activity – biochemical, kinetic fluorescence intensity, dose response (AID 624326); format: functional;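 further: rate of fluorescence rise from hydrolysis of a fluorogenic O-methyl fluorescein ester substrate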
[6] = Fluorescence-based cell-based high throughput dose response assay for inhibitors of the interaction of nucleotide-binding oligomerization domain containing 2 (NOD2) and the receptor-interacting serine-threonine kinase 2 (RIPK2).; format: functional; details: Homo sapiens
Fatty acid synthase [7] = biological target: T1, Fatty acid synthase; test: inhibition of human FAS-TE enzyme activity – biochemical, endpoint fluorescence intensity, uHTS hits, dose response (AID 624327); format: functional;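 further: fluorescence from hydrolysis of an O-methyl fluorescein acyl ester substrate by the enzyme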
[8] = biological target: T2, DNA repair and recombination protein RAD54-like (Homo sapiens, UniProt Q92698); test: RAD54 Holliday junction migration blockers – biochemical, fluorescence, cherry-picked samples, dose series, confirmation (AID 651657); format: functional
T2 sequence (Q92698 whole entry): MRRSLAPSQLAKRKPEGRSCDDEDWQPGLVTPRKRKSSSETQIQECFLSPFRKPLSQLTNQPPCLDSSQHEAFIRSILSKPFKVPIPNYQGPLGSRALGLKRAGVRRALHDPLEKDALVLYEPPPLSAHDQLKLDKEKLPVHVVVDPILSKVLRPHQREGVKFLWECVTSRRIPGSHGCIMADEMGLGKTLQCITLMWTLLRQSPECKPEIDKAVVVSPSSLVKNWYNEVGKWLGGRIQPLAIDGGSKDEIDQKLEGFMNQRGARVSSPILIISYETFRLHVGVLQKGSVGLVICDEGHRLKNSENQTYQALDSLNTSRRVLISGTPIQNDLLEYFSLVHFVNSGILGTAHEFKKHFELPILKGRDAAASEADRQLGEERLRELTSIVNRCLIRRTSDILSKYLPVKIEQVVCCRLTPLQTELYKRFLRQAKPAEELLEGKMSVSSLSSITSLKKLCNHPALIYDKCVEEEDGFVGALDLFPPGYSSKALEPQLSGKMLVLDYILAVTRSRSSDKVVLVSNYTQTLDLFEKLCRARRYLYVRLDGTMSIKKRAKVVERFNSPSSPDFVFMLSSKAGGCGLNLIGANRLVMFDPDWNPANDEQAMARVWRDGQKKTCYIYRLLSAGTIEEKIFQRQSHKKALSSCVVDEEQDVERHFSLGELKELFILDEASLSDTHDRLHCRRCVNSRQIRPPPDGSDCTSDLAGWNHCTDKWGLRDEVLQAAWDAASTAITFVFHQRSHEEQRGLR

[9] = acridine orange displacement from DNA – biochemical, fluorescence polarization, cherry-pick, artefact control for RAD54 inhibitor project, dose response (AID 651673); format: functional
[10] = blockers of CRF-binding protein–CRF-R2 complex – cell-based, uHTS hits, 384-well, dose response (AID 651639); format: functional, Homo sapiens; details: read-out: IC50_Mean
[11] = biological target: T3, Corticotropin-releasing factor receptor 2/Corticotropin-releasing factor-binding protein (Homo sapiens, UniProt P24387+Q13324); test: Dose Response confirmation of uHTS hits for small molecule antagonists of the CRF-binding protein and CRF-R2 receptor complex.; format: functional; details: read-out: IC50_Mean
T3 sequence (Q13324 whole entry): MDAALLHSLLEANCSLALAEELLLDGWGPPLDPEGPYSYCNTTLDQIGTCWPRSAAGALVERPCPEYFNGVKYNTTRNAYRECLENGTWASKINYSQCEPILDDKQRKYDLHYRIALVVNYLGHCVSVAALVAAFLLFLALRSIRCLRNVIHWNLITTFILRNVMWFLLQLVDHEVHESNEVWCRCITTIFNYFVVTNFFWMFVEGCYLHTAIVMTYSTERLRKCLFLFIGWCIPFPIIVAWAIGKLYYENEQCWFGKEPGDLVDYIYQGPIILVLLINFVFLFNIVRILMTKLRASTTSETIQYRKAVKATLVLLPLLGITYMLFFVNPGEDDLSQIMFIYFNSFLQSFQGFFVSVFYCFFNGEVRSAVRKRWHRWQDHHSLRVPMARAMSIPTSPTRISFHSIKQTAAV
T3 sequence (P24387 whole entry): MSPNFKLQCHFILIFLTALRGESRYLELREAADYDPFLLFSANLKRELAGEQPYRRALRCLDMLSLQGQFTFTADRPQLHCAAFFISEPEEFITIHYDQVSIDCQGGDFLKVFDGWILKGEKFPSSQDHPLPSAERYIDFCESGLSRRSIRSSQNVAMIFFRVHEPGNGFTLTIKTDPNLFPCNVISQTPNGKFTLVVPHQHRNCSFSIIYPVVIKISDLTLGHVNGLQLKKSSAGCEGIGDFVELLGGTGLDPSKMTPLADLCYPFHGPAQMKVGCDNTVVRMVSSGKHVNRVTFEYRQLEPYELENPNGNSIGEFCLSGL

[12] = biological target: T3, Corticotropin-releasing factor receptor 2/Corticotropin-releasing factor-binding protein; test: activators of CRF receptor 2 with binding protein – uHTS hits, confirmation (AID 602473); format: functional; details: read-out: EC50_Mean
Beta-galactosidase = Beta-galactosidase (Escherichia coli, UniProt Q8VNN2); test: PubChem AID 485352; format: functional
Galanin receptor type 3 = Galanin receptor type 3 (Homo sapiens, UniProt O60755); test: Fluorescence-based cell-based primary high throughput dose response assay to identify antagonists of the Galanin Receptor 3 (GalR3).; format: functional
[13] = biological target: T4, Type-1 angiotensin II receptor (Homo sapiens, UniProt P30556); test: antagonism of angiotensin II type 1 receptor – cell-based, uHTS hits, selectivity assay for APJ receptor antagonist project, dose response (AID 463214); format: functional;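 further: antagonist potency against angiotensin II stimulated AT1 response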
T4 sequence (P30556 whole entry): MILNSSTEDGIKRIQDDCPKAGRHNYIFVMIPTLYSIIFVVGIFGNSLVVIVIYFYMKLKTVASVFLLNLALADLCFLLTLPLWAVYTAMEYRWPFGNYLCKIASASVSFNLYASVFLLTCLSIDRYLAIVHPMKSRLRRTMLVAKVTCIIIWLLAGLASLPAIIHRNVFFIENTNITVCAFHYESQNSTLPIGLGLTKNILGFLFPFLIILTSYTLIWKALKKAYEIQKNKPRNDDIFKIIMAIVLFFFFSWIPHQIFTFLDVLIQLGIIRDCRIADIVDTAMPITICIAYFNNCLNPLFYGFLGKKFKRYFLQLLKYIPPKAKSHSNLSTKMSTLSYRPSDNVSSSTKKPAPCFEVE

[14] = biological target: T5, RNA-binding protein pos-1 (Caenorhabditis elegans, UniProt G5EF15); test: disruptors of C. elegans POS-1 RNA interaction – biochemical, fluorescence polarization, dose response (AID 1964);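 further: purified POS-1 fused to maltose binding protein made in E. coli; potency of compounds blocking POS-1 binding to fluorescent RNA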
T5 sequence (G5EF15 whole entry): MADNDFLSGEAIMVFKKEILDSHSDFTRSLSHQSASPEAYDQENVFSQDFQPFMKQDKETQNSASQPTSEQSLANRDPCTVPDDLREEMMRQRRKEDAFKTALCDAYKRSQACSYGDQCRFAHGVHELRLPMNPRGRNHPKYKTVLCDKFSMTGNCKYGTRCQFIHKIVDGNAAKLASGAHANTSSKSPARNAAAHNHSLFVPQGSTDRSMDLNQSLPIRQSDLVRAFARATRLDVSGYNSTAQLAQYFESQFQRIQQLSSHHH

[15] = biological target: T6, Zinc finger protein mex-5 (Caenorhabditis elegans, UniProt Q9XUB2); test: potency of MEX-5 RNA-binding blockers – biochemical, C. elegans, fluorescence polarization, dose response (AID 1960)
T6 sequence (Q9XUB2 whole entry): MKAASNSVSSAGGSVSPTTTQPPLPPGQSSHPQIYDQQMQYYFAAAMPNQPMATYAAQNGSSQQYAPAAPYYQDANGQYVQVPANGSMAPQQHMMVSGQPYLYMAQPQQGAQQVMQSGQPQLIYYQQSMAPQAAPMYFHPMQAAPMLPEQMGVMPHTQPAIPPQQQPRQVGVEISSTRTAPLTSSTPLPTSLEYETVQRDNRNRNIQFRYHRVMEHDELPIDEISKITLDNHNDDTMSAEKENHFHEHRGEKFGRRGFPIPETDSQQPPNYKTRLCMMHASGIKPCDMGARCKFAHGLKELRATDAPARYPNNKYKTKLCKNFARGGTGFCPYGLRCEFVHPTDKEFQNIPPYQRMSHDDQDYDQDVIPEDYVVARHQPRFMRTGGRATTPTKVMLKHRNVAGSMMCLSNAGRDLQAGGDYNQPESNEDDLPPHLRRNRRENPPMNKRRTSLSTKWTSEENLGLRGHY

Protein skinhead-1 = biological target: T7, Protein skinhead-1 (Caenorhabditis elegans, UniProt P34707); format: functional
T7 sequence (P34707 whole entry): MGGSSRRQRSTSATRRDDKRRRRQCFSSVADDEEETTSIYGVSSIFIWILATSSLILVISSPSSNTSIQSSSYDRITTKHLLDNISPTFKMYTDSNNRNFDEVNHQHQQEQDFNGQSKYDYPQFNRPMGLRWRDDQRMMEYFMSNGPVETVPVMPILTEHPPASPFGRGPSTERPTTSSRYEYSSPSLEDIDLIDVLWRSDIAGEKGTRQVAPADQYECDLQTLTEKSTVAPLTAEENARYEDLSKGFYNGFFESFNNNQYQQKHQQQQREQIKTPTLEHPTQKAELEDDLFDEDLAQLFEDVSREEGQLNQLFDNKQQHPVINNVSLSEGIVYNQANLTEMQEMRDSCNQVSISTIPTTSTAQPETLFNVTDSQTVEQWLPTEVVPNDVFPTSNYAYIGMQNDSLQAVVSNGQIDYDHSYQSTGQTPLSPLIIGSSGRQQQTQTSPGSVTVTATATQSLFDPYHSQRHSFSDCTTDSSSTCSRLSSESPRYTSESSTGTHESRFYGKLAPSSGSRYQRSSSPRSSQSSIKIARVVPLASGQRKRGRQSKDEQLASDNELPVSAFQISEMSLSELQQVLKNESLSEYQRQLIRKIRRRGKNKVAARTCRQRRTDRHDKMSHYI

Genome polyprotein = Genome polyprotein (dengue virus type 2, UniProt P29990); test: flavivirus cap methylation enzyme inhibition – biochemical, confirmation dose response, primary screen (AID 588689); format: functional
[16] = biological target: Hepatocyte nuclear factor 4-alpha (Homo sapiens, UniProt P41235); format: functional, cell-based;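 further: biochemical luminescence-based dose-response counterscreen measuring inhibition of HNF4 dimerization, run alongside a screen for blockers of ABHD5–perilipin-5 interaction; split luciferase complementation of HNF4 fusion proteins in cell lysate measuring dimerization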
[17] = viability loss in HEK293T cells – cell-based, cherry-picks, cytotoxicity control for HIV Vif inhibitor project, dose response (AID 652208); format: functional
HEK293 = test: EBV LMP1 TES2 canonical NF-kB signalling blockers – cell-based, HEK293, luciferase, cherry-pick, dose response (AID 588343); format: functional; details: Homo sapiens
[18] = Luminescence Cell-Based Dose Response HTS to Identify Inhibitors of 5'UTR Stem-Loop Driven Prion Protein mRNA Translation in H4 Neuroglioblastoma Cells. [Related pubchem assays: 1827 (Project Summary), 1813 (Primary HTS)]; format: functional
[19] = luciferase reporter signal suppression in cells – H4 neuroglioma cells, luminescence, dose response (AID 1990); format: functional, cell-based
[20] = alpha-synuclein stem-loop luciferase translation blockers – H4 neuroglioma cells, luminescence, confirmation (AID 1988); format: functional, cell-based

T1 sequence (P49327 whole entry, the tested form may be a part): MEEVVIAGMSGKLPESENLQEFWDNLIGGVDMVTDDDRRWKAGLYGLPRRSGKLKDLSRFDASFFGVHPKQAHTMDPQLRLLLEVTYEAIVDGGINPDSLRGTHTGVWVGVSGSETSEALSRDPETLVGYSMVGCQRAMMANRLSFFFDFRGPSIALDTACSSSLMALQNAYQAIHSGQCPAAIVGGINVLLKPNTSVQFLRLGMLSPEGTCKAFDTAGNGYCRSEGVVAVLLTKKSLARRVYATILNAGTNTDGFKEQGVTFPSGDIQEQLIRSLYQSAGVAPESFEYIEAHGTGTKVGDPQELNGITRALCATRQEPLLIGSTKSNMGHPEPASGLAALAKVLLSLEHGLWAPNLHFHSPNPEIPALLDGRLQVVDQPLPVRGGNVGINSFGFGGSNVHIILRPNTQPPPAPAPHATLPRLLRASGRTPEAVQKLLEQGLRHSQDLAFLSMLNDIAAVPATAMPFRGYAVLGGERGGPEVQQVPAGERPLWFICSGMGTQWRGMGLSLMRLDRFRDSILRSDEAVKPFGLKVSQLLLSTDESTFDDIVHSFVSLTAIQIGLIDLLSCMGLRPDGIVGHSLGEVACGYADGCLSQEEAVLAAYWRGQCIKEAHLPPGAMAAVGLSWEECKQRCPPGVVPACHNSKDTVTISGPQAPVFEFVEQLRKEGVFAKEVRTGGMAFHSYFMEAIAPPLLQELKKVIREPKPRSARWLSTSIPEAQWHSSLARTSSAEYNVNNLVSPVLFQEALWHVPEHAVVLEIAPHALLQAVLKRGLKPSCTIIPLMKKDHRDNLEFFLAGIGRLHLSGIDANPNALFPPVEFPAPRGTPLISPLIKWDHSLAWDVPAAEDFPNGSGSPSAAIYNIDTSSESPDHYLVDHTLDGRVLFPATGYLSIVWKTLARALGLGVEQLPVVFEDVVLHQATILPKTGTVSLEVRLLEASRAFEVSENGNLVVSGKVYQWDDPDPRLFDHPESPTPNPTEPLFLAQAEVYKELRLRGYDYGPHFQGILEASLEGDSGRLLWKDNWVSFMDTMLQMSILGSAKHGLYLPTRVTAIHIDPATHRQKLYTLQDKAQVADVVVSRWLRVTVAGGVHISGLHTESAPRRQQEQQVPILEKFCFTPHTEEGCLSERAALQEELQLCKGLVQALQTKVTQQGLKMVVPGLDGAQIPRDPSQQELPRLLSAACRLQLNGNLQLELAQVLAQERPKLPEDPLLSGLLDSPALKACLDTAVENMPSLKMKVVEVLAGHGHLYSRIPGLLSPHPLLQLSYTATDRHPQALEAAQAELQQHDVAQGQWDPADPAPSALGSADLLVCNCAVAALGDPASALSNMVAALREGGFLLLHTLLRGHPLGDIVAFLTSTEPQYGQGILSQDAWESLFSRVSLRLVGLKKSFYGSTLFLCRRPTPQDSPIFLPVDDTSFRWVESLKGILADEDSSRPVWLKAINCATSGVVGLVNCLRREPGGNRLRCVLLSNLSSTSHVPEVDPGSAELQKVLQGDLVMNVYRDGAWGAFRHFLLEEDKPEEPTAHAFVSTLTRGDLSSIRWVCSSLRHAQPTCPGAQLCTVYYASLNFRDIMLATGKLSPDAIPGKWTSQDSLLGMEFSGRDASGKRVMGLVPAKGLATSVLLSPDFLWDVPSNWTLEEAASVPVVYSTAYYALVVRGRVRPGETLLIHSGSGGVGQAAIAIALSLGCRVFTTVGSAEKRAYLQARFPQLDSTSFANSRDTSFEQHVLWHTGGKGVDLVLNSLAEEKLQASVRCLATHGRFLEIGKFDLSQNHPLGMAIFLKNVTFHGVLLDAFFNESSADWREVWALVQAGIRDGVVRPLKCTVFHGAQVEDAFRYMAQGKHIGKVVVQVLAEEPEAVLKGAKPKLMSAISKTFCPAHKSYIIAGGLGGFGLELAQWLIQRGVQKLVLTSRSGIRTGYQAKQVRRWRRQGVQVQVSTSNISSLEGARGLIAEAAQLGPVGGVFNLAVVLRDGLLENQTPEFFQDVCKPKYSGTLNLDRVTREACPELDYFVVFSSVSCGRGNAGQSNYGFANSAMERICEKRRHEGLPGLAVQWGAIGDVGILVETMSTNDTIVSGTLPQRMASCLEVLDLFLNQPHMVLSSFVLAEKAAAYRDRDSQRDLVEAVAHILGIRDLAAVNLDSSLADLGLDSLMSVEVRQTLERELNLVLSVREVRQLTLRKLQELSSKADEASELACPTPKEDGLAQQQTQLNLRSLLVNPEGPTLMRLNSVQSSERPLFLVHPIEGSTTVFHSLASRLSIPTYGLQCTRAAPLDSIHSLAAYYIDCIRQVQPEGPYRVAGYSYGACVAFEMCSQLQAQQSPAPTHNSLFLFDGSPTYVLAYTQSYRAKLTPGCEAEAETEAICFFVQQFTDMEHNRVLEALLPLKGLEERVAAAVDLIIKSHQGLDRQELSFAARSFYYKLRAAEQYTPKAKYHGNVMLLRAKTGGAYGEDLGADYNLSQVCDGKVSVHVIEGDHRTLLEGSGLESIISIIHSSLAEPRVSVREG
ADP-ribosylation factor GTPase-activating protein 1, sequence (Q62848 whole entry): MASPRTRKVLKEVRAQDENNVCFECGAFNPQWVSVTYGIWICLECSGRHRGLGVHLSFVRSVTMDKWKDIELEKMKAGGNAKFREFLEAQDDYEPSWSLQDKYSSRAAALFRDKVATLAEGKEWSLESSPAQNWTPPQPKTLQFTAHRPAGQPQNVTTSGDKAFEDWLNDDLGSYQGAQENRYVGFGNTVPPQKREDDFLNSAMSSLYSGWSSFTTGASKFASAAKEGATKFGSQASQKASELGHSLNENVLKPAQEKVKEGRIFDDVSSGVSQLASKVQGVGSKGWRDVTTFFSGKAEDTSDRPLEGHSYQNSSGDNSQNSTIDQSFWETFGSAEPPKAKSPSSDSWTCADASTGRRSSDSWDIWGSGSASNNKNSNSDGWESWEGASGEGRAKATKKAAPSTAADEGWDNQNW
Arf-GAP with SH3 domain, ANK repeat and PH domain-containing protein 1, sequence (Q9ULH1 whole entry, the tested form may be a part): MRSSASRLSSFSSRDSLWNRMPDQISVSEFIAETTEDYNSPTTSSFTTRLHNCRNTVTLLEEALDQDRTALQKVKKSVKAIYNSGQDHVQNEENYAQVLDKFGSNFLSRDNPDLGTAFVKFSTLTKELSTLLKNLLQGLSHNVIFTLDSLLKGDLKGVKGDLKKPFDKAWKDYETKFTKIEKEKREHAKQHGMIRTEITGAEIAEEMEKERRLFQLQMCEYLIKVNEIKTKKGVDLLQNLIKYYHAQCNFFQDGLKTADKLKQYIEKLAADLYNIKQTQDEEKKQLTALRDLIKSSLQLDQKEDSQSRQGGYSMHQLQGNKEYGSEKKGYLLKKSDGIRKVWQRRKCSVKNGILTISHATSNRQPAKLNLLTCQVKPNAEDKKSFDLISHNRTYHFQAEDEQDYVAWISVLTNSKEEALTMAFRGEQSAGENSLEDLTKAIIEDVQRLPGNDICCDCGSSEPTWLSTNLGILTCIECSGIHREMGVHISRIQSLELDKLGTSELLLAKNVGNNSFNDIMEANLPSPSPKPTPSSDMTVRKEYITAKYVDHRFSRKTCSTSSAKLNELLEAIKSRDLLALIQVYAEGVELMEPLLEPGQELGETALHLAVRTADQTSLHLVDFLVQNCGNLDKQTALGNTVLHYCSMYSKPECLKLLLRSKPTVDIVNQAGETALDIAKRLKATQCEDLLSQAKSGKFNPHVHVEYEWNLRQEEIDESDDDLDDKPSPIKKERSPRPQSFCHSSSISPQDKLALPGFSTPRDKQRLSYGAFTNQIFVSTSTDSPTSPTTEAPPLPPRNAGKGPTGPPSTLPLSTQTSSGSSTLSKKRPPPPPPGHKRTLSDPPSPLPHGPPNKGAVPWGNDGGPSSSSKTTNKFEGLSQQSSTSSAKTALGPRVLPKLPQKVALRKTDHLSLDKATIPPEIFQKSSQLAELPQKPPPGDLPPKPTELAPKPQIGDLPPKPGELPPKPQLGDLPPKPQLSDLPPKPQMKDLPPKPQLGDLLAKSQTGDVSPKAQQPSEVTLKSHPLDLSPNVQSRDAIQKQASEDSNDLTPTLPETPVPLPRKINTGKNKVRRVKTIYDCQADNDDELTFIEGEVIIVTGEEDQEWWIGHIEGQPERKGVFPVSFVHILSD
Beta Lactamase, sequence (Q932Y6 whole entry): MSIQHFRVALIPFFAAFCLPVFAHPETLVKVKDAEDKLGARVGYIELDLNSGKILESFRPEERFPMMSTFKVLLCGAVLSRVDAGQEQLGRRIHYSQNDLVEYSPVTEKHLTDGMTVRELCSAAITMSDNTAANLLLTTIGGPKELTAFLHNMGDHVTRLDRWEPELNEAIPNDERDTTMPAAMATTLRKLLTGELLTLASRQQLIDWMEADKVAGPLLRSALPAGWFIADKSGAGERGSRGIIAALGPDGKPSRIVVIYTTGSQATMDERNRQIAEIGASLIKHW
Hepatocyte nuclear factor 4-alpha, sequence (P41235 whole entry, the tested form may be a part): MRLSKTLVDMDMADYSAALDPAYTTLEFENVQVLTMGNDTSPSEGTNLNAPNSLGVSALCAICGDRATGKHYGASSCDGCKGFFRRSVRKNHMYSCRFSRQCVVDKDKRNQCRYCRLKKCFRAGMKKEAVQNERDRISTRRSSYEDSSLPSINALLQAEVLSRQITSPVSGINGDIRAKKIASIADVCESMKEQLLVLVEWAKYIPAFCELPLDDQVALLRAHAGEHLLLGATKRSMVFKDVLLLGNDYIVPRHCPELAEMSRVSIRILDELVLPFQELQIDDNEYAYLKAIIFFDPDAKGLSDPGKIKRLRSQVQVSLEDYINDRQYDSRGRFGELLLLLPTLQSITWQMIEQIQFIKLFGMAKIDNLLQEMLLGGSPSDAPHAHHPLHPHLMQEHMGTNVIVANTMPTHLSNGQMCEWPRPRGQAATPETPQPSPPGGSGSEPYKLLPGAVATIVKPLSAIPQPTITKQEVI

O=C(Cn1nc(-c2ccc3c(c2)OCCO3)ccc1=O)Nc1ccc(-n2cnnn2)cc1
IC50 [1]: 38.5 µM (inactive)

O=C(Nc1ccc(CN2CCOCC2)cc1)c1ccc(-c2cccc(Cl)c2)o1
AC50 [2]: 32.2 µM (active) | AC50 [3]: 44.2 µM (active) | IC50 [4]: 81.7 µM (inactive)

COc1ccc2ccccc2c1CNC(C)c1ccccc1 (configuration not stated)
AC50 (Vero): 31 µM (active)

CCOC(=O)[C@]12Cc3ccc(C)cc3[C@H]1N(C1CCCCC1)C(=O)c1ccccc12
IC50 (Beta Lactamase): 20 µM (inactive) | IC50 (Fatty acid synthase [5]): 6.79 µM (active) | IC50 [6]: 2.19 µM (active) | IC50 (Fatty acid synthase [7]): 6.12 µM (active)

CCOC(=O)c1cnc2c(C)cc(Cl)cc2c1NCCCN1CCOCC1
AC50 [8]: 17.4 µM (active) | AC50 [9]: 60.9 µM (active)

COc1ccc(OC)c(S(=O)(=O)N2c3ccccc3CC2C)c1 (configuration not stated)
IC50 [10]: 3.48 µM (active) | IC50 [11]: 33.9 µM (active) | EC50 [12]: > 53 µM (inactive)

Fc1ccc(NC(=S)NNc2ncc(C(F)(F)F)cc2Cl)c(F)c1
EC50 (Beta-galactosidase): > 40 µM (inactive) | IC50 (Galanin receptor type 3): 1.79 µM (active) | IC50 [13]: 15.6 µM (active)

CC(C)(C)c1cc(C(=O)NNC(=O)Nc2cccc(Cl)c2)n(Cc2ccccc2)n1
IC50 [10]: 5.13 µM (active) | IC50 [11]: 2 µM (active) | EC50 [12]: > 53 µM (inactive)

COC/C=C/C1=CC2=CC(=O)C(C)(OC(=O)C3CCCC3)C(=O)C2=CO1 (configuration not stated)
EC50 [14]: > 300 µM (not active) | EC50 [15]: > 300 µM (not active) | IC50 (Protein skinhead-1): > 100 µM (inactive) | IC50 (Genome polyprotein): 90.2 µM (active) | IC50 [16]: 11.4 µM (inactive)

N=C(N/N=C/c1ccnc2ccccc12)SC1CC(=O)N(c2ccc(Br)cc2)C1=O (configuration not stated)
IC50 [1]: 12.7 µM (inactive)

COc1cc(/C=C(\C#N)c2ccccn2)ccc1OCC(=O)Nc1c(Cl)cccc1Cl
IC50 [4]: 96.6 µM (inactive)

COc1ccc2cc(-c3cc(C(=O)OCC(=O)NC4CCS(=O)(=O)C4)c4ccccc4n3)ccc2c1 (configuration not stated)
AC50 [17]: 29.3 µM (active) | AC50 (HEK293): 1.09 µM (active) | EC50 [18]: 7.41 µM (active) | EC50 [19]: 10.1 µM (inconclusive) | EC50 [20]: 6.8 µM (active)
